Data reported in patent US5135928A, “Triazolo derivatives and process for their preparation” (Egis Gyogyszergyar, priority 1989, dated 1992).

Key:
mice = experiment: Hexobarbital narcosis on mice; type: in vivo; conditions: oral; for ED50: Mus musculus, 1 hour before Hexobarbital 40 mg/kg i.v., positive = sleeping time more than 2.5 times longer than control; for Therapeutical index: Hexobarbital narcosis
Method: 1. Hexobarbital narcosis on mice
Method: Kaergaard, Arch. Int. Pharmacodyn. 2, 170, (1967)
Groups consisting of 6 mice are used for each dose. The animals are treated orally with the test compound (the control group receives a vehicle), whereby sleeping is induced 1 hour later by administering a 40 mg/kg i.v. dose of Hexobarbital both to the test and control groups.
Animals which have a sleeping time more than 2.5 times longer than that of the control group are considered to show a positive reaction. ED50 values are calculated from the thus-transformed data.

rats = experiment: Antianginal effect (vasopressin-induced experimental coronaria insufficiency, height of wave T in ECG); type: in vivo; conditions: Rattus norvegicus, iv, 2 minutes prior to vasopressin i.v.; narcotised male rats 180-220 g
Method: Male rats of 180-220 g body weight were narcotised with chloralese-urethane(70/700 mg/kg ip.). The ECG was registered with needle electrodes in standard II leading. The experimental coronaria insufficiency was induced with vasopressin (4 NE/kg i.v.). The height of wave T in ECG was measured before and after the administration of vasopressin in both the control and treated groups. Test compounds were administered intravenously 2 minutes prior to the treatment with vasopressin.

Row | SMILES | ED50 (mice) | Therapeutical index (mice) | ED50 (rats)
1 | CN(N=Cc1c(Cl)cccc1Cl)C(=S)n1nc(N2CCOCC2)nc1N [Example 5, 1-(5-Amino-3-morpholino-1H-1,2,4-triazol-1-yl)-N-methyl-N'-(2,6-dichlorobenzylidene)carbothiohydrazide] | 36 mg/kg | 27.8 | 
2 | CN(N=Cc1ccc(OCC(N)=O)cc1)C(=S)n1nc(N2CCOCC2)nc1N [Example 7, 1-(5-Amino-3-morpholino-1H-1,2,4-triazol-1-yl)-N-methyl-N'-(4-carbamoylmethoxybenzylidene)carbothiohydrazide] | 110 mg/kg | 9.1 | 
3 | COc1cc(C=NN(C)C(=S)n2nc(SC)nc2N)ccc1O [Example 22, 1-(5-Amino-3-methylthio-1H-1,2,4-triazol-1-yl)-N-methyl-N'-(4-hydroxy-3-methoxybenzylidene)carbothiohydrazide] | 110 mg/kg | 5.1 | 
4 | CC1Nc2nc(N3CCOCC3)nn2C(=S)N(C)N1 (centres unmarked) [Example 41, 6,8-Dimethyl-2-morpholino-5,6,8,9-tetrahydro[1,2,4]-triazolo-[1,5-d][1,2,4,6]tetrazepine-5(7H)-thione] | 200 mg/kg | 10.0 | 
5 | CSc1nc2n(n1)C(=S)N(C)NC1(CCCCC1)N2 [Example 47, 6-Methyl-2-methylthio-5,6,8,9-tetrahydro[1,2,4]-triazolo[1,5-d][1,2,4,6]tetrazepine-5(7H)-thione-8-spiro-1'-cyclohexane] | 200 mg/kg | 10.0 | 
6 | CN1NC2(CCCC2)Nc2nc(N3CCOCC3)nn2C1=S [Example 48, 6-Methyl-2-morpholino-5,6,8,9-tetrahydro[1,2,4]-triazolo[1,5-d][1,2,4,6]tetrazepine-5(7H)-thione-8-spiro-1'-cyclopentane] |  |  | 1.35 mg/kg
7 | CN1NC2(CCCCCCCCCCC2)Nc2nc(N3CCOCC3)nn2C1=S [Example 53, 6-Methyl-2-morpholino-5,6,8,9-tetrahydro-1,2,4-triazolo[1,5-d][1,2,4,6]tetrazepine-5(7H)-thione-8-spiro-1'-cyclododecane] | 41 mg/kg | 48.8 | 1 mg/kg
8 | COC(=O)CC1(C)Nc2nc(SC)nn2C(=S)N(C)N1 (centres unmarked) [Example 57, 6,8-Dimethyl-8-methoxycarbonyl-methyl-2-methylthio-5,6,8,9tetrahydro[1,2,4]triazolo[1,5-d][1,2,4,6]-tetrazepine-5(7H)-thione] |  |  | 1.65 mg/kg
9 | CCOC(=O)CCC1(C)Nc2nc(N3CCOCC3)nn2C(=S)N(C)N1 (centres unmarked) [Example 58, 6,8-Dimethyl-8-(ethoxycarbonyl-ethyl)-2-morpholino-5,6,8,9-tetrahydro[1,2,4]triazolo[1,5-d][1,2,4,6]-tetrazepine-5(7H)-thione] | 160 mg/kg | 12.5 | 
10 | CCCC(C)(COC(N)=O)COC(N)=O [Meprobamate, reference compound] | 270 mg/kg | 4.1 | 
11 | CC(Cc1ccccc1)NCCC(c1ccccc1)c1ccccc1 (centres unmarked) [Prenylamine, reference compound] |  |  | 6.5 mg/kg
